These results are taken from patent publication US9155740B2, “Compositions and methods for treatment and prevention of hyperuricemia related health consequences” (priority 2004, dated 2015).

The subject of test [1] is diabetic C57BL6 and eNOS KO mice. In words: Streptozotocin diabetic C57BL6 and eNOS KO mice with insulin treatment. It is filed as in vivo, mouse. How it is done: Experiments were performed following protocol approval by the Animal Care and Use Committee of the University of Florida (IACUC). C57B1/6J mice (C57BL6) and C57BL/6JNos3tm1Unc (eNOS KO mice) (Jackson Laboratory, Bar Harbor, Me.) aged 8 weeks were rendered diabetic with intraperitoneal injections of streptozotocin (STZ) (100 mg/kg/day for 2 consecutive days) freshly dissolved in 0.1M citrate buffer (pH 4.5). Development of diabetes (defined by blood glucose greater than 250 mg/dL) was verified 1 week after the first STZ injection with ONE TOUCH system (Johnson & Johnson, Milpitas, Calif.). For blood sugar control, a single insulin pellet (Linshin Canada Inc, Ontario, Canada) was implanted subcutaneously for 5 months. Blood glucose was monitored every 2 weeks and if the fasting blood glucose was >200 mg/dl, an additional insulin pellet was inserted. Mice were housed in the animal care facility with 12-hour light/dark cycle and allowed free access to food and water. Body weight was recorded monthly. At 3 and 5 months, mice were euthanized for histological analysis. A total of 6 groups were examined with 10 mice for each group at starting points. Non-diabetic (non-DM), diabetic (DM), and diabetic mice (C57BL6 and eNOS KO) with insulin treatment (DMIns) were examined. Systolic blood pressure was assessed as the mean value of 5-10 consecutive measurements obtained in the morning using a tail-cuff sphygmomanometer (Visitech BP2000, Visitech Systems, Inc., Apex, N.C.). BUN was measured by BUN assay (Diagnostic chemicals limited, PE, Canada). Urine in bladder was obtained for urinary albumin excretion at sacrifice. Albumin-to-Creatinine ratio was measured with Albuwell M (Exocell Inc., Philadelphia, Pa.) and Liquid Creatinine Assay (Bioquant, San Diego, Calif.), respectively.
Kidneys were fixed in Fekete's fixative (mixture of ethanol, distilled water, 37% formalin and glacial acetic acid), and embedded in paraffin. 2-μm sections were stained with the periodic acid-Schiff reagent (PAS) or the periodic acid-methenamine silver (PAM) and counterstained with hematoxylin. Indirect immunoperoxidase staining was performed using antibodies to the endothelial antigen, thrombomodulin (TM) (Yuzawa Y, Brentjens J R, Brett J, Caldwell P R, Esposito C, Fukatsu A, Godman G, Stern D, Andres G: Antibody-mediated redistribution and shedding of endothelial antigens in the rabbit. J Immunol 150: 5633-5646, 1993) or CD34 (BD Pharmingen, San Jose, Calif.) (Fina L, Molgaard H V, Robertson D, Bradley N J, Monaghan P, Delia D, Sutherland D R, Baker M A, Greaves M F: Expression of the CD34 gene in vascular endothelial cells. Blood 75: 2417-2426, 1990), and to vascular smooth muscle cells with anti-smooth muscle actin (Abcam, Cambridge, Mass.). To detect endothelial cell proliferation, double immunostaining was performed with an antibody to the […], Ki67 (Abcam, Cambridge, Mass.) and thrombomodulin. Color was developed using DAB as a chromogen. In double staining, Bjoran Purple (BioCare Medical, Concord, Calif.) was used for thrombomodulin.
All quantifications were performed in a blinded fashion. Using coronal sections of the kidney, all glomeruli (100-200 of glomeruli per each animal) were examined. Glomerular mesangial expansion, mesangiolysis, and nodular lesions were evaluated. The percentage of mesangiolysis was calculated as the number of glomeruli with mesangiolysis divided by that of total glomeruli. Arteriolar morphology was assessed by indirect peroxidase immunostaining for alpha-smooth muscle actin. […] Afferent arteriolar wall thickness was measured by computer image analysis. For each arteriole, the outline of the vessel and its internal lumen (excluding the endothelium) were generated by using computer analysis to calculate the total wall area (outline-inline) in a minimum of 12 arterioles. Vessels that were cross-sectioned or not sectioned transversally, providing an asymmetrical wall, were excluded from the present study. […]

The subject of a further test is Male Sprague-Dawley rats. Kind of test: Oxonic acid-induced hyperuricemia in rats, serum uric acid, NOx and blood pressure. Type of test: in vivo, rat. How it is done:
Male Sprague-Dawley rats were housed in standard conditions and fed normal diets. Hyperuricemia was induced with an uricase inhibitor, oxonic acid (OA; 750 mg/kg/day), by gavage, with control rats receiving vehicle. Allopurinol (AP) was used to block hyperuricemia by placing AP in the drinking water (150 mg/L). Rats were divided into four groups: (1) Control, (2) AP only, (3) OA only, and (4) OA+AP. Systolic blood pressure was measured using a tail-cuff sphygmomanometer. The amount of drinking water consumed and changes in body weight were noted. Rats were sacrificed at one and seven days. Serum was analyzed for uric acid concentration and nitrites/nitrates (NOx) by chemiluminescence method. (Prabhakar SS: Inhibition of mesangial iNOS by reduced extracellular pH is associated with uncoupling of NADPH oxidation. Kidney Int 61:2015-2024, 2002). Statistical analysis between subgroups was performed using ANOVA.

Test [2] deals with fructose-fed rats. In words: Treatment of fructose-induced hyperuricemia with allopurinol. The conditions noted are these: for body weight: treatment study, p=NS. It is filed as in vivo, rat. The text has this: Treatment of fructose-induced hyperuricemia with allopurinol: Male Sprague-Dawley rats (150-200 g) were housed in standard conditions and fed control (n=7) or 60% fructose diet (Harlan, Madison, Wis., n=14) for 10 weeks. “Control diet” contains 46% carbohydrate, which is mainly composed of starch whereas the fructose diet contained 60% fructose as the carbohydrate. The caloric content of these diets are 3.1 kcal/g and 3.6 kcal/g, respectively. At 4 weeks, blood sample were obtained at 11 am in the morning after 4 h fasting. Half of the fructose-fed rats were administered allopurinol (AP, 150 mg/L in the drinking water) (Sigma, St. Louis, Mo.) for an additional 6 weeks to lower serum uric acid. Fresh drinking water containing allopurinol was replaced every 2 days. Rats were divided into 3 groups: Control; Fructose (Fr); and Fr+AP. At 10 weeks an oral glucose tolerance test was performed, in which rats were fasted overnight (16 hours), and then administered 1.5 g/kg OGTT (50% glucose solution) by gavage. Blood was sampled at 0, 30, 60, 120 min for blood glucose and serum insulin measurement. Rats were then sacrificed.
(§1) Measurements: Systolic blood pressure was assessed as the mean value of 3 consecutive measurements obtained in the morning using a tail-cuff sphygmomanometer (Visitech BP2000, Visitech Systems, Inc., Apex, N.C.). All animals were preconditioned for blood pressure measurements 1 wk before each experiment. Serum uric acid was measured by uricase method. Blood glucose was measured with the ONE TOUCH system (Johnson&Johnson, Milpitas, Calif.). Rat insulin was measured by ELISA (Crystal Chem. Inc., Chicago, Ill.). Insulin sensitivity index was calculated using the formula of Matsuda and DeFronzo (10,000/square root of [fasting glucose×fasting insulin]×[mean glucose×mean insulin during OGTT]), which is highly correlated (r=0.73, p<0.0001) with rate of whole-body glucose disposal during the euglycemic insulin clamp (Matsuda M and DeFronzo R A, Insulin sensitivity indices obtained from oral glucose tolerance testing: comparison with the euglycemic insulin clamp, Diabetes Care 22: 1462-1470, 1999). Serum lipids were measured with an autoanalyzer (VETAce, Alfa Wassermann Inc, West Caldwell, N.J.) or Triglyceride-SL assay kit (Diagnostic chemicals Limited, Charlottetown, PE, Canada).
(§2) Statistical analysis. All values presented are expressed as mean±SD and analyzed by one-way analysis of variance (ANOVA) or by unpaired Student's t test. Significance was defined as p<0.05.

For test [3], the system named is fructose-fed rats. Kind of test: Prevention of fructose-induced hyperuricemia with allopurinol. It is filed as in vivo, rat. How it is done:
[…] Three groups (control, Fr, and Fr+AP; n=8 each) were designed for this prevention study. Body weight was measured every 2 weeks. Food consumption was measured for 3 days at 8 weeks.
as §1, §2

The next test has as its system endothelial function. Conditions: infusion into forearm vein, immediately after infusion; cited from earlier work.
Test [4] relates to Rat Aortic Artery (AA) segments. In words: Acetylcholine-induced vasorelaxation of rat aortic artery segments. The conditions noted are these: uric acid 0-15 mg/dl; acetylcholine 5 μM; U-46619 0.5 μM. How it is done:
Vasorelaxation of rat Aortic Artery (AA) segments: Rat AA segments (1-0.5 mm diameter×3-4 mm length) were isolated from the 2- to 3- month-old rats, AA segments were suspended in individual organ chambers (Radnoti Four-Unit Tissue Bath System) with 5 ml in Earl's solution, oxygenated with 95% O2 and 5% CO2 at 37° C. After 1 hr equilibration of resting force of 1.5 g, vascular smooth muscle cell or endothelium integrity in this AA segment was confirmed by monitoring 0.5 μM U-46619 (a thromboxane A2 mimetic, sigma)-mediated AA contraction or acetylcholine (5 μM)-mediated vasodilation, respectively. After washing several times, the segments were incubated with various concentration of uric acid (0-15 mg/dl ) in organ bath chamber for 30 min. Stable construction was induced by 0.5 μM U-46619 for 10 min prior to acetylcholine-induced vasorelaxation. The vascular tensions were continuously monitored with an isometric force transducer (Harvard Apparatus, Holliston, Mass.). To standardize the data, U-46619-induced stable increase in vascular tone was set as 100%.

For test [5], the system named is cultured bovine endothelial cells. Conditions: cited from earlier work.
The next test concerns fructose fed rats. In words: 60% dextrose vs 60% fructose diet, pair-fed, lowering uric acid with benzbromarone. It is filed as in vivo, rat. The conditions noted are these: 4 weeks. How it is done:
Comparison between 60% dextrose and 60% fructose on the development of metabolic syndrome and the effect of lowering uric acid with Benzbromarone: Rats were pair-fed with 60% dextrose diet or 60% fructose diet for 4 weeks, which are isocaloric. […] At 4 weeks, total food intake per animal was calculated from the food left over. Total food intake is the subtraction of the left-over food from total administered food (1425 g/rat/28days). In addition to the above two groups, a third group of fructose fed rats were administered BZ. Body weight was measured weekly. At 4 weeks, after 5 h fasting, insulin, triglyceride and uric acid were measured. All protocols were approved by the Animal Care Committee of the University of Florida.
as §1

The mark [6] stands for this setting: wildtype and eNOS knockout mice.

For the compound insulin, in test [1] (3 and 5 months), the “development of mesangial expansion” value was “blocked”, the development of mesangiolysis result is given as “blocked” and the “development of the nodular lesions” value is listed as “blocked”. For the same compound, in test [1] (both wildtype and eNOS knockout mice), the blood glucose levels result was “significant improvements”. Also, the “up-regulation of VEGF mRNA expression” value in test [1] (diabetic C57BL6 and eNOS KO mice, whole kidney) is given as “blocked”. Moreover, the “increase in inner lumen size of afferent arteriole” value in test [1] (diabetic eNOS KO mice) is “blocked”. For the same compound, the “increase in endothelial cell proliferation and number” value in test [1] (diabetic mice, renal cortex) was “largely corrected”. Moreover, the blood pressure entry in test [1] (eNOS knockout mice) was “significantly improved”. Also, the survival entry in test [1] (eNOS knockout mice, 5 months) is reported as “significantly improved”. Besides, in test [1] (setting [6]), the development of proteinuria entry was “prevented”, the “development of renal dysfunction” value was “prevented” and the “development of renal hypertrophy” value was “prevented”.

In the case of `O=C(O)c1nc(=O)[nH]c(=O)[nH]1` [OA, oxonic acid], the “reduction of serum NOx in hyperuricemic rats” value with Male Sprague-Dawley rats (at both 1 day and 7 days, vs control) is 40-50%.

In the case of `O=C(CO)[C@@H](O)[C@H](O)[C@H](O)CO` [Fr, fructose], the body weight with fructose-fed rats [2] (10 weeks) amounted to 522 ± 57 g. In addition, the final weight with fructose-fed rats [3] (prevention study, 8 weeks) amounted to 456 ± 24 g.

Regarding `Oc1ncnc2[nH]ncc12` [Allopurinol, allopurinol], in the test with fructose-fed rats [2] (AP 150 mg/L drinking water for 6 weeks from week 4 of fructose diet), the serum uric acid result is “effective at lowering uric acid”. Besides, the “insulin sensitivity (index)” value in the test with fructose-fed rats [2] (OGTT at 10 weeks) is recorded as “improved insulin sensitivity”. In addition, the “hypertriglyceridemia (serum triglycerides)” value in the test on fructose-fed rats [2] (fructose-fed rats) is recorded as “abolished”. The “urinary excretion of uric acid” value in the test on fructose-fed rats [2] (fructose-fed rats, 9 weeks) is “prevented the reduced excretion of uric acid”. The fasting hyperinsulinemia result in the test with fructose-fed rats [2] (fructose-fed rats, 10 weeks) was “reversed”. Besides, the systolic blood pressure result in the test on fructose-fed rats [2] (fructose-fed rats, remained higher than control) is “significantly reduced”. In the test with fructose-fed rats [2] (oral glucose tolerance test at 10 weeks), the postprandial hyperinsulinemia result is “partially but significantly lower”. The compound also showed a body weight with fructose-fed rats [2] (10 weeks) of 474 ± 37 g. The “elevation of uric acid by fructose diet” value in the test with fructose-fed rats [3] (allopurinol given simultaneously with fructose diet, over the 6 week period) is on record as “prevented”. The fasting insulin levels entry in the test with fructose-fed rats [3] (compared to fructose-fed rats, 8 weeks) is given as “significantly lower”. For the same compound, the development of hypertriglyceridemia result with fructose-fed rats [3] (prevention study) was “completely prevented”. The compound further came in with a final weight with fructose-fed rats [3] (prevention study, 8 weeks) of 426 ± 26 g. Also, in the test with Male Sprague-Dawley rats (7 days, OA vs OA/AP, p=NS), the systolic blood pressure was 147±11 mm Hg. Also, in the test on Male Sprague-Dawley rats (rats treated with AP alone), the “change in NOx concentration” value was “did not show a significant change” and the “change in serum UA” value is recorded as “did not show a significant change”.

With `O=c1[nH]c(=O)c2[nH]c(=O)[nH]c2[nH]1` [uric acid], the “endothelial function measured by brachial artery reactivity” value with endothelial function is listed as “does not impair endothelial function”. Further, the “vasorelaxation of aortic arterial rings in response to acetylcholine” value in test [4] is listed as “dose-dependently blocked”. The NO levels result in test [5] is given as “potently reduce NO levels”.

Regarding `CCc1oc2ccccc2c1C(=O)c1cc(Br)c(O)c(Br)c1` [benzbromarone, Benzbromarone], in the test with fructose fed rats, the hyperinsulinemia entry was “significantly improved”, the hypertriglyceridemia entry is “significantly improved” and the hyperuricemia result is given as “significantly improved”.
